# Measured values taken from publication PMC10641814 (Journal of Medicinal Chemistry, 2023).
# Legend:
# [1] = target: 5-HT2AR (Homo sapiens, UniProt P28223); assay: 5-HT2AR binding ([3H]-ketanserine), Eurofins; conditions: read-out: serotonin 5-HT2A % inhibition at 1 microM
# Text: (§1) The results were expressed as the %
# (§2) www.eurofinsdiscovery.com.
# [2] = Chemical stability (hydrolysis, oxidation); conditions: acidic and basic hydrolysis (0.5 M HCl and 0.5 M NaOH at 60 °C) and oxidizing conditions (10% H2O2 at room temperature)
# [3] = target: T1, human 5-HT1A (Homo sapiens, UniProt P08908); assay: 5-HT1AR binding ([3H]-8-OH-DPAT), HEK293; conditions: read-out: serotonin 5-HT1A % inhibition at 1 microM
# T1 construct: expressed in transfected cells
# T1 sequence (P08908 1-422): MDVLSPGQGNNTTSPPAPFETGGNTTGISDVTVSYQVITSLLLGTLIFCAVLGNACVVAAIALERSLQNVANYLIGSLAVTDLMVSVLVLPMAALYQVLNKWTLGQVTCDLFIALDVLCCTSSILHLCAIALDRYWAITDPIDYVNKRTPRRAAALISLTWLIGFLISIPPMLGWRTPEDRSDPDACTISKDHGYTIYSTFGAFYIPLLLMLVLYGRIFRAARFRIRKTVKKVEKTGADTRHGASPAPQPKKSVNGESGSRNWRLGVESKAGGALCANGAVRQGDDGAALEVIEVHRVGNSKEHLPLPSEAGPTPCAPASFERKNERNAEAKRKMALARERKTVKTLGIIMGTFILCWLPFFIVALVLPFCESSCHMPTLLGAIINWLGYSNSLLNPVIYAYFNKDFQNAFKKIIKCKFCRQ
# Method: 3. Selectivity screen of PZ-1922
# For membrane preparation,
# EDTA and 1 mM dithiothreitol.
# The composition of the assay buffers was
# reader (PerkinElmer, USA).
# as §1, §2
# [4] = target: T2, h5-HT3R (Homo sapiens, UniProt P46098); assay: 5-HT3R radioligand binding ([3H]-BRL 43694) in CHO cells
# T2 construct: expressed in transfected cells; host or cells: CHO
# T2 sequence (P46098 24-478): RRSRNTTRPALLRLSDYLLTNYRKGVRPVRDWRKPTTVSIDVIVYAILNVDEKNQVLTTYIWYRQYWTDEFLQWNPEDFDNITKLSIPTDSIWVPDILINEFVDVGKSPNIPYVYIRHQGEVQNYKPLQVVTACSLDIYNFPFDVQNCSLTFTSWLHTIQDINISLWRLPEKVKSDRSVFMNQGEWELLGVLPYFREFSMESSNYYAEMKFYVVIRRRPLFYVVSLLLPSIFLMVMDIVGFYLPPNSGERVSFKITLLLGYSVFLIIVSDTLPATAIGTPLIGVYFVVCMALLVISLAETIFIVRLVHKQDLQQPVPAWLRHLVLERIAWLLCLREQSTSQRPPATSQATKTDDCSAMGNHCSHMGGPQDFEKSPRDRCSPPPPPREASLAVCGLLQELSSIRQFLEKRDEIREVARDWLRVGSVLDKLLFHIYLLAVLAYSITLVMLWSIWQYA
# [5] = target: T3, α2AR (Homo sapiens, UniProt P08913); assay: Adrenergic α2AR binding ([3H]-RX821002), Eurofins; conditions: read-out: adrenergic alfa2A % inhibition at 1 microM
# T3 sequence (P08913 1-465): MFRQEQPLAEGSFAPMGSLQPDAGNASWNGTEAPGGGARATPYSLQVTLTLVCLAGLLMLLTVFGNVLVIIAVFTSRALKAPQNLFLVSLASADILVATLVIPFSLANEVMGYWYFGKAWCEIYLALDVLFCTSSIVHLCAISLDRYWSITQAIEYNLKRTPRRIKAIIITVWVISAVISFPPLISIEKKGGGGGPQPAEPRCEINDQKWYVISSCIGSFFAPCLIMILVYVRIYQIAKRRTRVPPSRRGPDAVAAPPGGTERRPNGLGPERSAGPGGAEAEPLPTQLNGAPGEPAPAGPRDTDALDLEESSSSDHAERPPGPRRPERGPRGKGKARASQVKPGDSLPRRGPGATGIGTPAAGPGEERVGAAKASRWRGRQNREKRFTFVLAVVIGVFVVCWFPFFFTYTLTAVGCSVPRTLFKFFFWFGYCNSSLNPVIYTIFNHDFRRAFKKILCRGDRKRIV
# Text: as §1, §2
# [6] = tested on: hippocampus of rats injected with oAβ25–35; assay: Western blot of hippocampal AD biomarkers in oAβ25–35-injected rats; type: in vivo, rat; conditions: oAβ25–35 icv
# Method: As previously detailed,[37],[64] to induce the acute model of AD (oAβ25–35 model), rats were divided into three groups. […] The animals were anesthetized with an intraperitoneal (ip) injection of a mixture of ketamine and xylazine (80 and 10 mg/kg b.w., respectively). Scrambled peptide and oAβ25–35 were injected directly into the lateral ventricles at a rate of 2 μL/min using a David-Kopf stereotaxic apparatus (coordinates of injection: AP −1 mm, L ±1.5 mm, DV −3.5 mm).
# On day 14, animals were subjected to a behavioral memory test (T-maze) and sacrificed on day 15 by decapitation.
# 2—A preventive approach: This treatment was started at the same time as the induction of amyloid toxicity and consisted of implanting ip, and during the same anesthetic procedure necessary for the icv injection of oAβ25–35, an osmotic pump (Alzet-EML2, Charles-River, France) which continuously delivered the molecules for 1 week at the dose of 3 mg/kg/day. On day 7, animals were submitted to a behavioral memory test (T-maze) and sacrificed on day 8 by decapitation.
# At the time of sacrifice, all hippocampi were dissected out, weighed, and rapidly frozen in liquid nitrogen for Western blot (WB) analysis.
# Western blot analyses were performed on the whole hippocampus as previously described.[37] All antibodies used are detailed in Table S3. Briefly, after sacrifice, hippocampi were microdissected, weighed, immediately frozen in liquid nitrogen, and stored at −20 °C. Tissues were sonicated (VibraCell; Sonics & Materials, USA) in a lysis buffer[37] and centrifuged (4 °C). Supernatants were collected, and the protein concentration was measured using a bicinchoninic Acid (BCA) assay (ThermoFisher Scientific, France). […] The membranes were incubated overnight (4 °C) with the primary antibody, washed, and then incubated for 2 h with the appropriate horseradish peroxidase-conjugated secondary antibody. […] The intensity of the immunoreactive signals was quantified using Image-J software (NIH, Bethesda, […], USA). β-Tubulin (β-Tub) was used as a loading control for all experiments.
# [7] = target: dopaminergic D3R (Homo sapiens, UniProt P35462); assay: D3R binding ([3H]-methylspiperone), Eurofins; conditions: read-out: dopamine D3 % inhibition at 1 microM
# Text: as §1, §2
# [8] = target: 5-HT2BR (Homo sapiens, UniProt P41595); assay: 5-HT2BR binding ([3H]-mesulergine), Eurofins
# Text: as §1, §2
# [9] = 1.5 mg/kg ip twice a day for 7 days
# [10] = 3 mg/kg/day osmotic pump 1 week
# [11] = curative and preventive approach
# 5-HT2BR, sequence (P41595 whole entry): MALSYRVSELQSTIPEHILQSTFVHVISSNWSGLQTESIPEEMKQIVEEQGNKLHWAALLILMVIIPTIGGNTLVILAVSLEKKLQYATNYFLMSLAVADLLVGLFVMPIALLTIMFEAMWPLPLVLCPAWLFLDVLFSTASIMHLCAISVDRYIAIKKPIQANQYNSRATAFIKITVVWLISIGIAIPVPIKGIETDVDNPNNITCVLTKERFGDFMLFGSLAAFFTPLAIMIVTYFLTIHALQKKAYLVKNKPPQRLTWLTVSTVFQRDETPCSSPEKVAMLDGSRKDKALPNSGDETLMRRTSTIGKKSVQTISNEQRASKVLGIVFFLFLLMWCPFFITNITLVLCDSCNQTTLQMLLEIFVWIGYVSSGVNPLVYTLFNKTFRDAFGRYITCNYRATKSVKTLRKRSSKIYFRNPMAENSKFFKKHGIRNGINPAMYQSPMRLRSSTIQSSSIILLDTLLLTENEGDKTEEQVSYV
# 5-HT2AR, sequence (P28223 whole entry): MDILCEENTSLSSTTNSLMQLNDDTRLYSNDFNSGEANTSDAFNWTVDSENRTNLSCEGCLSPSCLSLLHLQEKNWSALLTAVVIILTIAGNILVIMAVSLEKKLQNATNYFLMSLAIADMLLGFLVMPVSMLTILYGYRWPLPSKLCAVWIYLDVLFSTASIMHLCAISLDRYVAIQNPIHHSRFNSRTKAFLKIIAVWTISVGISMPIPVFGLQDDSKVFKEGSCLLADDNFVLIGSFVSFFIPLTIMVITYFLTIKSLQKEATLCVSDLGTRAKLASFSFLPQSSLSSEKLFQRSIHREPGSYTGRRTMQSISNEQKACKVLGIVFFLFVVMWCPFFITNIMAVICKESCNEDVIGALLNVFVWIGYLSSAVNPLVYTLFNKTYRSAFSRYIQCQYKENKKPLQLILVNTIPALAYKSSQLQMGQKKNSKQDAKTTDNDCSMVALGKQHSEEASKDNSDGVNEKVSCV
# dopaminergic D3R, sequence (P35462 whole entry): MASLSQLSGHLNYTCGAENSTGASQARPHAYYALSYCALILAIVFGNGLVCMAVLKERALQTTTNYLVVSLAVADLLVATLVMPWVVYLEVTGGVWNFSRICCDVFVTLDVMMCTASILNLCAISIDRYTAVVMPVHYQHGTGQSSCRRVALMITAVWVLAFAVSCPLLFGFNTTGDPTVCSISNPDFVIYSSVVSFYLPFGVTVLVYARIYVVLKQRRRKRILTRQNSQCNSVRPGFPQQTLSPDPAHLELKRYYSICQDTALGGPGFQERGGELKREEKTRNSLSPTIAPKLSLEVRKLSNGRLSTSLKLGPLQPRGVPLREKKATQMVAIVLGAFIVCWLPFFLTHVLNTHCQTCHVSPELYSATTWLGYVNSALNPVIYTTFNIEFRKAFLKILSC
smiles,measurement,setting,value
"Cl.Clc1cccc(Cn2ccc3c(N4CCNCC4)nc4ccccc4c32)c1 [PZ-1922, 1-(3-Chlorobenzyl)-4-(piperazin-1-yl)-1H-pyrrolo[3,2-c]quinoline Hydrochloride]",inhibition at 1 µM,[1],5%
same,chemical stability,[2],chemically stable
same,inhibition at 1 µM,[3],3%
same,Ki,"[4]; 0.5 nM [3H]-BRL 43694, CHO cells expressing h5-HT3R, two independent experiments",0.45 nM
same,inhibition at 1 µM,[4]; read-out: inhibition of 5-HT3R binding in selectivity screen,> 50%
same,inhibition at 1 µM,[5],22%
same,"hippocampal Caspase-3 and Pro-caspase-3 expression, curative strategy",[6]; [9],decreased expression of Caspase-3 and Pro-caspase-3
same,"hippocampal PSD-95 and SYN levels, curative treatment",[6]; [9],reversed PSD-95 and SYN levels
same,"hippocampal Caspase-3 and Pro-caspase-3 expression, preventive treatment",[6]; [10],prevented increased expression of Caspase-3 and Pro-caspase-3
same,"hippocampal PSD-95 and SYN levels, preventive treatment",[6]; [10],reversed PSD-95 and SYN levels
same,hippocampal GFAP increase,[6]; [11],Neither PZ-1922 nor intepirdine impacted the GFAP increase
same,hippocampal Iba1 level,[6]; [11],decreased the Iba1 level regardless of the applied approach
same,inhibition at 1 µM,[7],31%
same,"effect on 5-HT2BR (cardiac safety, valvulopathy)","[8]; binding, 1 μM",lack of effect
same,inhibition at 1 µM,[8]; read-out: serotonin 5-HT2B % inhibition at 1 microM,17%
